Data on 2 molecules can be found in patent publication US20090221653A1, “7-(2-amino-1-hydroxy-ethyl)-4-hydroxybenzothiazol-2(3H)-one-derivatives as beta2 adrenoreceptor agonists” (AstraZeneca AB, priority 2005, published 2009).

Structures can show the parent of a compound that is named as a salt.

Experiment [1] deals with T1, recombinant human adrenergic beta 1 receptors (Homo sapiens, UniProt P08588).
T1 construct: purchased Euroscreen
The experiment is described as follows: Adrenergic β1 selectivity assay, inhibition of [125I]-Iodocyanopindolol binding. Particulars: membranes, [125I]-Iodocyanopindolol; read-out: β1 bind pIC50 (converted).

Experiment [2] deals with T2, recombinant human α1D receptor (Homo sapiens, UniProt P25100).
T2 construct: expressed in transfected cells; host or cells: HEK293
T2 sequence (P25100 1-572): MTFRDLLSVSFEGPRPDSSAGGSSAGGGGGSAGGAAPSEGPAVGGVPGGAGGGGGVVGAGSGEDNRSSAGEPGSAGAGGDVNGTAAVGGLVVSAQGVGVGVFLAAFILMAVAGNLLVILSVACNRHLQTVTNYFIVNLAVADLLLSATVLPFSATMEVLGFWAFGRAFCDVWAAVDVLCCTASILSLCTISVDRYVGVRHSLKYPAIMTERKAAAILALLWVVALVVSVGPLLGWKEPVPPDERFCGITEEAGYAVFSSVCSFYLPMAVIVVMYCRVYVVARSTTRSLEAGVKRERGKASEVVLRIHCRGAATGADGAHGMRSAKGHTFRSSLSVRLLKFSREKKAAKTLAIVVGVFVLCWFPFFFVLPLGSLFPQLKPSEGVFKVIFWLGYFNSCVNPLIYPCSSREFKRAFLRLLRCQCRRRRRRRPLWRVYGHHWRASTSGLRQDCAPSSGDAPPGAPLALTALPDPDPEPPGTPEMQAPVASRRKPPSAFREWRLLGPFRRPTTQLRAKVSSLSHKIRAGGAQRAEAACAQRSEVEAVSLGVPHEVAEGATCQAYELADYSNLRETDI
The experiment is described as follows: Adrenergic α1D selectivity assay, inhibition of [3H]-prazosin binding. The settings on record: HEK293 membranes, [3H]-prazosin 0.3 nM; read-out: α1 bind pIC50 (converted). Put shortly: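 HEK293 membranes expressing recombinant human α1D, with 0.3 nM [3H]-prazosin in 50 mM HEPES, 1 mM EDTA, 0.1% gelatin, pH 7.4. Incubation 2 h at room temperature, with 10 μM BMY7378 defining non-specific binding. Filtration and scintillation counting; NSB-subtracted specific binding.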

The target of experiment [3] is T3, Adrenergic β2 (Homo sapiens, UniProt P07550).
T3 construct: endogenous in cells; host or cells: H292 cells
The experiment is described as follows: Alternative Adrenergic β2 Mediated cAMP Production in H292 cells (AlphaScreen cAMP detection). Particulars: for EC50: cAMP, test compounds incubated 60 minutes, 300 μM rolipram, read-out: β2 pEC50 (converted); for β2 Int Act: fraction relative to the maximum activity determined for formoterol, 60 minutes incubation. It counts as cell-based. Background: Bead proximity is the source of the signal in Alpha formats.

T3 sequence (P07550 whole entry): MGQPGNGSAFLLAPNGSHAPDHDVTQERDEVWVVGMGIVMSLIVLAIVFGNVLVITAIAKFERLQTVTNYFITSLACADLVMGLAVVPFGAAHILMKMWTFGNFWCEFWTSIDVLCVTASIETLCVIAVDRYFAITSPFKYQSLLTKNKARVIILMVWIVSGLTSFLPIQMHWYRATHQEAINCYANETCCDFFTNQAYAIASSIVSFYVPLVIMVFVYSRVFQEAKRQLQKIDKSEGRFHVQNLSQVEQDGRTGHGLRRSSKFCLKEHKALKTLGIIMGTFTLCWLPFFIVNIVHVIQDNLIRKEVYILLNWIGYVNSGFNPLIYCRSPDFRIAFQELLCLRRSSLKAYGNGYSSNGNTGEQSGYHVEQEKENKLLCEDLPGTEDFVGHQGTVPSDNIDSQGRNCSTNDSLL
T1 sequence (P08588 whole entry): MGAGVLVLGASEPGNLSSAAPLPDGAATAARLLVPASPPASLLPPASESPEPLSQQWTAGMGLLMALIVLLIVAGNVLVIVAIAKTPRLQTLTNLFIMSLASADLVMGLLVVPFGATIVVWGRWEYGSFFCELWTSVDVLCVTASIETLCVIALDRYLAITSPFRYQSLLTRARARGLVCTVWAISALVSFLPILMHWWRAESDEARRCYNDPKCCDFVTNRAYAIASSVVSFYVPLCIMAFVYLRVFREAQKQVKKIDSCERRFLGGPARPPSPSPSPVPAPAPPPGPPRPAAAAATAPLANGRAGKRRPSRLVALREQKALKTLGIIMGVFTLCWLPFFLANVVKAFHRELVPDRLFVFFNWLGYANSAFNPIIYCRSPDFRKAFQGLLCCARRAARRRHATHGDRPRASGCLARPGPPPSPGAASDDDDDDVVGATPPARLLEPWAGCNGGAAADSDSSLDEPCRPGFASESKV

Turning to `O=c1[nH]c2c(O)ccc([C@@H](O)CNCCCS(=O)(=O)CCOCCc3cccc4ccccc34)c2s1` [Example 2, 4-Hydroxy-7-((1R)-1-hydroxy-2-{[3-({2-[2-(1-naphthyl)ethoxy]ethyl}sulfonyl)propyl]-amino}ethyl)-1,3-benzothiazol-2(3H)-one trifluoroacetate], the IC50 in experiment [1] was 15.8 nM. Further, in experiment [2], the IC50 was 1000 nM. In addition, in experiment [3], the EC50 is 0.158 nM and the “β2 Int Act” value is recorded as 1.

For the molecule `Cl.O=c1[nH]c2c(O)ccc([C@@H](O)CNCCSCCOCCc3cccc4ccccc34)c2s1` [Example 4, 4-Hydroxy-7-((1R)-1-hydroxy-2-{[2-({2-[2-(1-naphthyl)ethoxy]ethyl}thio)ethyl]-amino}ethyl)-1,3-benzothiazol-2(3H)-one hydrochloride], the IC50 in experiment [1] was 126 nM; in experiment [2], 200 nM. For the same molecule, the EC50 in experiment [3] was 0.1 nM. Moreover, the “β2 Int Act” value in experiment [3] was 0.9.
